Columns and labels:
Conditions in all cases: exposure time: 72 h
E21 [1] = patient-derived glioblastoma stem cells of mesenchymal subtype; assay: surviving fraction (nuclei count normalised to DMSO); higher = more cells surviving (less toxic)
FT3469 [2] = normal neural stem cell line; assay: as above
E34 [3] = patient-derived glioblastoma stem cells of proneural subtype; assay: as above
E28 [4] = patient-derived glioblastoma stem cells of classical subtype; assay: as above
E13 [5] = patient-derived glioblastoma stem cells of classical subtype; assay: as above
E57 [6] = patient-derived glioblastoma stem cells of mesenchymal subtype; assay: as above
E21 [7] = assay: phenotypic distance (Euclidean, principal components) from DMSO controls (arbitrary units); higher = stronger morphological change
FT3469 [8] = assay: as above
E34 [9] = assay: as above
E28 [10] = assay: as above
E13 [11] = assay: as above
E57 [12] = assay: as above
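Wherever phenotypic distance (Euclidean, principal components) from DMSO controls is given: cell Painting imaging in 384-well plates, CellProfiler features reduced to at least 20 principal components, Euclidean distance versus same-plate DMSO vehicle wells (0.1% v/v), median over six images per well.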
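Wherever surviving fraction (nuclei count normalised to DMSO) is given: nuclei counted by high-content imaging of Hoechst-stained cells in laminin-coated 384-well plates, relative to 0.1% DMSO vehicle wells, with staurosporine as cell-death control.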

Cc1cc(C)c(CN2CCc3c(Cl)cc(-c4c(C)noc4C)c(Cl)c3C2=O)c(=O)[nH]1
Conditions	phenotypic distance	surviving fraction
E13 [5], 4.1 nM	–	1.06
E13 [5], 4.11523 nM	–	0.856
E13 [5], 12.3 nM	–	1.14
E13 [5], 12.34567901 nM	–	0.965
E13 [5], 37 nM	–	0.832
E13 [5], 37.037 nM	–	1
E13 [5], 111.1 nM	–	1.12
E13 [5], 111.1111111 nM	–	1.02
E13 [5], 333.3 nM	–	0.891
E13 [5], 333.333 nM	–	1.06
E13 [5], 1000 nM	–	1.01
E13 [5], 3000 nM	–	0.89
E13 [11], 4.1 nM	0.55	–
E13 [11], 4.11523 nM	0.762	–
E13 [11], 12.3 nM	0.528	–
E13 [11], 12.34567901 nM	0.464	–
E13 [11], 37 nM	0.636	–
E13 [11], 37.037 nM	0.555	–
E13 [11], 111.1 nM	0.599	–
E13 [11], 111.1111111 nM	0.586	–
E13 [11], 333.3 nM	0.546	–
E13 [11], 333.333 nM	2.27	–
E13 [11], 1000 nM	0.5296	–
E13 [11], 3000 nM	1.67	–
E21 [1], 4.1 nM	–	0.906
E21 [1], 4.11523 nM	–	0.889
E21 [1], 12.3 nM	–	1.06
E21 [1], 12.34567901 nM	–	0.956
E21 [1], 37 nM	–	0.952
E21 [1], 37.037 nM	–	0.858
E21 [1], 111.1 nM	–	1.03
E21 [1], 111.1111111 nM	–	1.03
E21 [1], 333.3 nM	–	0.966
E21 [1], 333.333 nM	–	0.985
E21 [1], 1000 nM	–	0.973
E21 [1], 3000 nM	–	0.984
E21 [7], 4.1 nM	0.846	–
E21 [7], 4.11523 nM	0.624	–
E21 [7], 12.3 nM	0.502	–
E21 [7], 12.34567901 nM	0.663	–
E21 [7], 37 nM	0.782	–
E21 [7], 37.037 nM	0.448	–
E21 [7], 111.1 nM	0.333	–
E21 [7], 111.1111111 nM	2.67	–
E21 [7], 333.3 nM	1.29	–
E21 [7], 333.333 nM	0.358	–
E21 [7], 1000 nM	0.536	–
E21 [7], 3000 nM	0.603	–
E28 [4], 4.1 nM	–	0.912
E28 [4], 4.11523 nM	–	1.06
E28 [4], 12.3 nM	–	1.07
E28 [4], 12.34567901 nM	–	0.996
E28 [4], 37 nM	–	0.901
E28 [4], 37.037 nM	–	1.05
E28 [4], 111.1 nM	–	0.947
E28 [4], 111.1111111 nM	–	0.947
E28 [4], 333.3 nM	–	0.95
E28 [4], 333.333 nM	–	1.17
E28 [4], 1000 nM	–	0.98
E28 [4], 3000 nM	–	0.991
E28 [10], 4.1 nM	0.563	–
E28 [10], 4.11523 nM	0.484	–
E28 [10], 12.3 nM	0.447	–
E28 [10], 12.34567901 nM	0.539	–
E28 [10], 37 nM	0.798	–
E28 [10], 37.037 nM	0.532	–
E28 [10], 111.1 nM	0.371	–
E28 [10], 111.1111111 nM	2.05	–
E28 [10], 333.3 nM	0.616	–
E28 [10], 333.333 nM	0.607	–
E28 [10], 1000 nM	0.701	–
E28 [10], 3000 nM	0.617	–
E34 [3], 4.1 nM	–	0.921
E34 [3], 4.11523 nM	–	0.993
E34 [3], 12.3 nM	–	1.13
E34 [3], 12.34567901 nM	–	0.993
E34 [3], 37 nM	–	0.811
E34 [3], 37.037 nM	–	0.929
E34 [3], 111.1 nM	–	1.11
E34 [3], 111.1111111 nM	–	0.938
E34 [3], 333.3 nM	–	0.85
E34 [3], 333.333 nM	–	1.01
E34 [3], 1000 nM	–	0.861
E34 [3], 3000 nM	–	0.96
E34 [9], 4.1 nM	0.88	–
E34 [9], 4.11523 nM	0.409	–
E34 [9], 12.3 nM	0.682	–
E34 [9], 12.34567901 nM	0.739	–
E34 [9], 37 nM	1.1	–
E34 [9], 37.037 nM	0.359	–
E34 [9], 111.1 nM	0.667	–
E34 [9], 111.1111111 nM	0.478	–
E34 [9], 333.3 nM	1.23	–
E34 [9], 333.333 nM	0.552	–
E34 [9], 1000 nM	0.66	–
E34 [9], 3000 nM	1.1	–
E57 [6], 4.1 nM	–	0.932
E57 [6], 4.11523 nM	–	0.986
E57 [6], 12.3 nM	–	0.955
E57 [6], 12.34567901 nM	–	0.938
E57 [6], 37 nM	–	1.02
E57 [6], 37.037 nM	–	1.04
E57 [6], 111.1 nM	–	0.932
E57 [6], 111.1111111 nM	–	1.01
E57 [6], 333.3 nM	–	1
E57 [6], 333.333 nM	–	1.01
E57 [6], 1000 nM	–	1.02
E57 [6], 3000 nM	–	1.06
E57 [12], 4.1 nM	0.289	–
E57 [12], 4.11523 nM	0.517	–
E57 [12], 12.3 nM	0.432	–
E57 [12], 12.34567901 nM	0.412	–
E57 [12], 37 nM	0.351	–
E57 [12], 37.037 nM	0.334	–
E57 [12], 111.1 nM	0.307	–
E57 [12], 111.1111111 nM	0.418	–
E57 [12], 333.3 nM	0.28	–
E57 [12], 333.333 nM	0.343	–
E57 [12], 1000 nM	0.373	–
E57 [12], 3000 nM	0.511	–
FT3469 [2], 4.1 nM	–	0.866
FT3469 [2], 4.11523 nM	–	0.918
FT3469 [2], 12.3 nM	–	0.934
FT3469 [2], 12.34567901 nM	–	0.961
FT3469 [2], 37 nM	–	0.862
FT3469 [2], 37.037 nM	–	0.857
FT3469 [2], 111.1 nM	–	0.892
FT3469 [2], 111.1111111 nM	–	1.05
FT3469 [2], 333.3 nM	–	0.977
FT3469 [2], 333.333 nM	–	0.9
FT3469 [2], 1000 nM	–	0.914
FT3469 [2], 3000 nM	–	0.971
FT3469 [8], 4.1 nM	0.799	–
FT3469 [8], 4.11523 nM	0.574	–
FT3469 [8], 12.3 nM	0.456	–
FT3469 [8], 12.34567901 nM	0.531	–
FT3469 [8], 37 nM	3.66	–
FT3469 [8], 37.037 nM	0.66	–
FT3469 [8], 111.1 nM	0.618	–
FT3469 [8], 111.1111111 nM	0.467	–
FT3469 [8], 333.3 nM	0.925	–
FT3469 [8], 333.333 nM	1.74	–
FT3469 [8], 1000 nM	0.694	–
FT3469 [8], 3000 nM	0.451	–

O=C(C1CC1)N1CC[C@@H](Cc2n[nH]c(=O)n2-c2ccc(-c3ccc4occc4c3)cc2)C1
Conditions	phenotypic distance	surviving fraction
E13 [5], 4.1 nM	–	0.7243
E13 [5], 12.3 nM	–	0.771
E13 [5], 37 nM	–	0.726
E13 [5], 111.1 nM	–	0.671
E13 [5], 333.3 nM	–	0.641
E13 [5], 1000 nM	–	0.744
E13 [5], 3000 nM	–	0.66
E13 [11], 4.1 nM	3.07	–
E13 [11], 12.3 nM	3.018	–
E13 [11], 37 nM	3.95	–
E13 [11], 111.1 nM	3.29	–
E13 [11], 333.3 nM	3.49	–
E13 [11], 1000 nM	3.21	–
E13 [11], 3000 nM	2.99	–
E21 [1], 4.1 nM	–	0.835
E21 [1], 12.3 nM	–	0.849
E21 [1], 37 nM	–	0.804
E21 [1], 111.1 nM	–	0.777
E21 [1], 333.3 nM	–	0.749
E21 [1], 1000 nM	–	0.789
E21 [1], 3000 nM	–	0.732
E21 [7], 4.1 nM	2.24	–
E21 [7], 12.3 nM	2.337	–
E21 [7], 37 nM	2.41	–
E21 [7], 111.1 nM	2.65	–
E21 [7], 333.3 nM	2.64	–
E21 [7], 1000 nM	2.59	–
E21 [7], 3000 nM	2.62	–
E28 [4], 4.1 nM	–	0.827
E28 [4], 12.3 nM	–	0.792
E28 [4], 37 nM	–	0.771
E28 [4], 111.1 nM	–	0.752
E28 [4], 333.3 nM	–	0.786
E28 [4], 1000 nM	–	0.662
E28 [4], 3000 nM	–	0.704
E28 [10], 4.1 nM	2.86	–
E28 [10], 12.3 nM	3.11	–
E28 [10], 37 nM	3.37	–
E28 [10], 111.1 nM	3.59	–
E28 [10], 333.3 nM	3.55	–
E28 [10], 1000 nM	3.85	–
E28 [10], 3000 nM	3.76	–
E34 [3], 4.1 nM	–	0.853
E34 [3], 12.3 nM	–	0.872
E34 [3], 37 nM	–	0.906
E34 [3], 111.1 nM	–	0.895
E34 [3], 333.3 nM	–	0.879
E34 [3], 1000 nM	–	0.864
E34 [3], 3000 nM	–	0.811
E34 [9], 4.1 nM	1.76	–
E34 [9], 12.3 nM	2.04	–
E34 [9], 37 nM	2.26	–
E34 [9], 111.1 nM	2.59	–
E34 [9], 333.3 nM	2.265	–
E34 [9], 1000 nM	2.464	–
E34 [9], 3000 nM	2.5	–
E57 [6], 4.1 nM	–	0.616
E57 [6], 12.3 nM	–	0.62
E57 [6], 37 nM	–	0.578
E57 [6], 111.1 nM	–	0.574
E57 [6], 333.3 nM	–	0.526
E57 [6], 1000 nM	–	0.53
E57 [6], 3000 nM	–	0.469
E57 [12], 4.1 nM	3.85	–
E57 [12], 12.3 nM	3.99	–
E57 [12], 37 nM	4.34	–
E57 [12], 111.1 nM	4.35	–
E57 [12], 333.3 nM	4.55	–
E57 [12], 1000 nM	4.45	–
E57 [12], 3000 nM	4.65	–
FT3469 [2], 4.1 nM	–	0.786
FT3469 [2], 12.3 nM	–	0.874
FT3469 [2], 37 nM	–	0.823
FT3469 [2], 111.1 nM	–	0.77
FT3469 [2], 333.3 nM	–	0.783
FT3469 [2], 1000 nM	–	0.769
FT3469 [2], 3000 nM	–	0.666
FT3469 [8], 4.1 nM	2.28	–
FT3469 [8], 12.3 nM	2.24	–
FT3469 [8], 37 nM	2.6	–
FT3469 [8], 111.1 nM	3.07	–
FT3469 [8], 333.3 nM	2.8	–
FT3469 [8], 1000 nM	3.17	–
FT3469 [8], 3000 nM	3.52	–
